{"source": "patent US10844023B2", "about": "(Washington University, priority 2017, dated 2020)", "system": "Mfn2 null MEFs", "test": "Mitochondrial elongation (aspect ratio) fusogenicity assay", "format": "cell-based, mouse", "parameters": "% long compare to B: dose or concentration left out as unconfirmed", "conditions": "for Aspect ratio (MEAN ± SEM) / % long compare to B: Mfn2 null MEFs; for Aspect ratio (MEAN ± SEM): overnight, treatment with 1 μM compound (footnote); for Fusogenicity Rank: rank order of aspect ratio among 44 soluble library compounds; for % long compare to B: mitochondrial elongation relative to Cpd B (B01 = 100), compound overnight as printed (FIG. 48)"}
{"smiles": "CC(Sc1nnc(N2CCOCC2)n1Cc1ccccc1)C(=O)Nc1ccc2[nH]c(=O)[nH]c2c1", "note": "(stereo not drawn) [drawing 223, 2-{[4-benzyl-5-(morpholin-4-yl)-4H-1,2,4-triazol-3-yl]sulfanyl}-N-(2-oxo-2,3-dihydro-1H-1,3-benzodiazol-5-yl)propanamide]", "values": [{"measurement": "Aspect ratio (MEAN ± SEM)", "value": "5.2 ± 0.2"}, {"measurement": "Fusogenicity Rank", "value": 8}]}
{"smiles": "O=C(NCCCCc1ccccc1)Nc1ccc(F)cc1", "note": "[A2, 3-(4-fluorophenyl)-1-(4-phenylbutyl)urea]", "values": [{"measurement": "% long compare to B", "value": "−4", "unit": "%"}]}
{"smiles": "Cc1ccc(-n2c(SC(C)C(=O)Nc3ccnn3C(C)C)nnc2N2CCOCC2)cc1", "note": "(stereo not drawn) [C01, 2-{[4-(4-methylphenyl)-5-(morpholin-4-yl)-4H-1,2,4-triazol-3-yl]sulfanyl}-N-[1-(propan-2-yl)-1H-pyrazol-5-yl]propanamide]", "values": [{"measurement": "% long compare to B", "value": 16, "unit": "%"}]}
{"smiles": "CCOC(=O)c1sc(NC(=O)C(CC)Sc2nnc3c(n2)[nH]c2ccccc23)nc1C", "note": "(stereo not drawn) [drawing 203, ethyl 4-methyl-2-(2-{5H-[1,2,4]triazino[5,6-b]indol-3-ylsulfanyl}butanamido)-1,3-thiazole-5-carboxylate]", "values": [{"measurement": "Aspect ratio (MEAN ± SEM)", "value": "4.5 ± 0.5"}, {"measurement": "Fusogenicity Rank", "value": 13}]}
{"smiles": "Cc1nnc(SCC(=O)Nc2sc3c(c2C(N)=O)CCC3)n1-c1ccccc1", "note": "[1-H3, 2-{2-[(5-methyl-4-phenyl-4H-1,2,4-triazol-3-yl)sulfanyl]acet-amido}-4H,5H,6H-cyclo-penta[b]thiophene-3-carboxamide]", "values": [{"measurement": "% long compare to B", "value": 10, "unit": "%"}]}
{"smiles": "CC(Sc1nccn1Cc1ccccc1)C(=O)Nc1sc2c(c1C(N)=O)CCC2", "note": "(stereo not drawn) [1-G7, 2-{2-[(1-benzyl-1H-imidazol-2-yl)sulfanyl]propanamido}-4H,5H,6H-cyclopenta[b]thio-phene-3-carboxamide]", "values": [{"measurement": "% long compare to B", "value": 3, "unit": "%"}]}
{"smiles": "CC(Sc1nnc(-c2cccnc2)n1Cc1ccco1)C(=O)Nc1sc2c(c1C(N)=O)CCC2", "note": "(stereo not drawn) [1-F10, 2-[2-({4-[(furan-2-yl)methyl]-5-(pyridin-3-yl)-4H-1,2,4-triazol-3-yl}sulfanyl)propanamido]-4H,5H,6H-cyclopenta[b]-thiophene-3-carboxamide]", "values": [{"measurement": "% long compare to B", "value": 29, "unit": "%"}]}
{"smiles": "CC(C)C1=CC2C(=O)NC(CSCC(=O)NCc3ccccn3)=NC2S1", "note": "(stereo not drawn) [E02, 2-({[4-oxo-6-(propan-2-yl)-3H,4H,4aH,7aH-thieno[2,3-d]pyrimidin-2-yl]methyl}sulfanyl)-N-[(pyridin-2-yl)methyl]acetamide]", "values": [{"measurement": "% long compare to B", "value": 11, "unit": "%"}]}
{"smiles": "O=C(NCCSCc1ccccc1)C1CCCCO1", "note": "(stereo not drawn) [drawing 218, N-[2-(benzylsulfanyl)ethyl]oxane-2-carboxamide]", "values": [{"measurement": "Aspect ratio (MEAN ± SEM)", "value": "3.3 ± 0.4"}, {"measurement": "Fusogenicity Rank", "value": 30}]}
{"smiles": "CC(c1cccc([N+](=O)[O-])c1)N(C)CC(=O)NCCSCc1ccccc1C#N", "note": "(stereo not drawn) [N-(2-{[(2-cyanophenyl)methyl]sulfanyl}ethyl)-2-{methyl[1-(3-nitrophenyl)ethyl]amino}acetamide]", "values": [{"measurement": "Aspect ratio (MEAN ± SEM)", "value": "4.0 ± 0.5"}, {"measurement": "Fusogenicity Rank", "value": 16}]}
{"smiles": "Cc1occc1-c1nnc(SC(C)C(=O)Nc2sc3c(c2C(N)=O)CCC3)n1C", "note": "(stereo not drawn) [1-C9, 2-(2-{[4-methyl-5-(2-methylfuran-3-yl)-4H-1,2,4-triazol-3-yl]sulfanyl}propanamido)-4H,5H,6H-cyclopenta[b]thio-phene-3-carboxamide]", "values": [{"measurement": "% long compare to B", "value": "−3", "unit": "%"}]}
{"smiles": "COc1ccc(SC(C)C(=O)Nc2cc[nH]n2)cc1", "note": "(stereo not drawn) [C03, 2-[(4-methoxyphenyl)sulfa-nyl]-N-(1H-pyrazol-3-yl)propanamide]", "values": [{"measurement": "% long compare to B", "value": 10, "unit": "%"}]}
{"smiles": "O=C(NCCSCc1ccsc1)C1CC2CCCC(C1)C2=O", "note": "(stereo not drawn) [B11, 9-oxo-N-(2-{[(thiophen-3-yl)methyl]sulfanyl}-ethyl)bicyclo[3.3.1]-nonane-3-carboxamide]", "values": [{"measurement": "% long compare to B", "value": 23, "unit": "%"}]}
{"smiles": "CC(C)(C)NC(=O)NC(=O)COC(=O)CSCc1nc2scc(-c3ccccc3)c2c(=O)[nH]1", "note": "[B07, 2-[(tert-butylcarbamoyl)amino]-2-oxoethyl 2-[({4-oxo-5-phenyl-3H,4H-thieno[2,3-d]pyrimidin-2-yl}methyl)sulfanyl] acetate]", "values": [{"measurement": "% long compare to B", "value": 64, "unit": "%"}]}
{"smiles": "C=CCn1c(SCC(=O)Nc2sc3c(c2C(N)=O)CCC3)nnc1C1CCCCC1", "note": "[1-E1, 2-(2-{[5-cyclohexyl-4-(prop-2-en-1-yl)-4H-1,2,4-triazol-3-yl}sulfanyl]acetamido)-4H,5H,6H-cyclopenta[b]thio-phene-3-carboxamide]", "values": [{"measurement": "% long compare to B", "value": 38, "unit": "%"}]}
{"smiles": "C=CCn1c(SCC(=O)Nc2sc3c(c2C(N)=O)CCC3)nnc1-c1ccccc1", "note": "[1-F2, 2-(2-{[5-phenyl-4-(prop-2-en-1-yl)-4H-1,2,4-triazol-3-yl]sulfanyl}acetamido)-4H,5H,6H-cyclopenta[b]thio-phene-3-carboxamide]", "values": [{"measurement": "% long compare to B", "value": "−10", "unit": "%"}]}
{"smiles": "O=C(NCCSCc1ccccc1F)NC1CCCCC1", "note": "[1-B10, 1-cyclohexyl-3-(2-{[(2-fluorophenyl)methyl]sulfanyl}ethyl)urea]", "values": [{"measurement": "% long compare to B", "value": 6, "unit": "%"}]}
{"smiles": "CC(Sc1nnc(Cc2ccccc2)n1C)C(=O)Nc1sc2c(c1C(N)=O)CCC2", "note": "(stereo not drawn) [1-H6, 2-{2-[(5-benzyl-4-methyl-4H-1,2,4-triazol-3-yl)sulfanyl]propanamido}-4H.5H.6H-cyclopenta[b]-thiophene-3-carboxamide]", "values": [{"measurement": "% long compare to B", "value": 8, "unit": "%"}]}
{"smiles": "CCC(C)NC(=O)c1ccccc1NC(=O)C(C)Sc1ccc(C)cc1", "note": "(stereo not drawn) [drawing 236, N-(butan-2-yl)-2-{2-[(4-methylphenyl)sulfanyl]propanamido}benzamide]", "values": [{"measurement": "Aspect ratio (MEAN ± SEM)", "value": "3.3 ± 0.4"}, {"measurement": "Fusogenicity Rank", "value": 29}]}
{"smiles": "CC(c1nnc(SCC(=O)Nc2sc3c(c2C(N)=O)CCC3)n1-c1ccc(F)cc1)N(C)C", "note": "(stereo not drawn) [1-F6, 2-[2-({5-[1-(dimethylamino)ethyl]-4-(4-fluorophenyl)-4H-1,2,4-triazol-3-yl}sulfanyl)acetamido]-4H,5H,6H-cyclopenta[b]thio-phene-3-carboxamide]", "values": [{"measurement": "% long compare to B", "value": 30, "unit": "%"}]}
{"smiles": "CC(Sc1nnc(CC2CCS(=O)(=O)C2)n1C)C(=O)Nc1sc2c(c1C(N)=O)CCC2", "note": "(stereo not drawn) [1-E9, 2-[2-({5-[(1,1-dioxo-1λ^6-thiolan-3-yl)methyl]-4-methyl-4H-1,2,4-triazol-3-yl}sulfanyl)propanamido]-4H,5H,6H-cyclopenta[b]thio-phene-3-carboxamide]", "values": [{"measurement": "% long compare to B", "value": 0, "unit": "%"}]}
{"smiles": "O=C(NCCSCc1cccc(Cl)c1)C1CCCCn2nnnc21", "note": "(stereo not drawn) [D07, N-(2-{[(3-chlorophenyl)methyl]-sulfanyl}ethyl)-5H,6H,7H,8H,9H-[1,2,3,4]tetrazolo[1,5-a]azepine-9-carboxamide]", "values": [{"measurement": "% long compare to B", "value": "−6", "unit": "%"}]}
{"smiles": "c1ccc(CSCCc2nc(C3CCOC3)no2)cc1", "note": "(stereo not drawn) [drawing 238, 5-[2-(benzylsulfanyl)ethyl]-3-(oxolan-3-yl)-1,2,4-oxadiazole]", "values": [{"measurement": "Aspect ratio (MEAN ± SEM)", "value": "3.4 ± 0.6"}, {"measurement": "Fusogenicity Rank", "value": 28}]}
{"smiles": "Cc1nnc(SCCCNC(=O)c2n[nH]c3c2CN(C)CC3)s1", "note": "[E06, 5-methyl-N-{3-[(5-methyl-1,3,4-thiadiazol-2-yl)sulfanyl]propyl}-1H,4H,5H,6H,7H-pyrazolo[4,3-c]pyridine-3-carboxamide]", "values": [{"measurement": "% long compare to B", "value": "−3", "unit": "%"}]}
{"smiles": "O=C(NCCSCc1cccc(Cl)c1)C1CCCCn2nnnc21", "note": "(stereo not drawn) [drawing 222, N-(2-{[(3-chlorophenyl)methyl]sulfanyl}ethyl)-5H,6H,7H,8H,9H-[1,2,3,4]tetrazolo[1,5-a]azepine-9-carboxamide]", "values": [{"measurement": "Aspect ratio (MEAN ± SEM)", "value": "2.9 ± 0.2"}, {"measurement": "Fusogenicity Rank", "value": 38}]}
{"smiles": "Cc1nnc(SCC(=O)Nc2sc3c(c2C(N)=O)CCC3)n1C", "note": "[2-A5, 2-{2-[(dimethyl-4H-1,2,4-triazol-3-yl)sulfanyl]acetamido}-4H,5H,6H-cyclopenta[b]thio-phene-3-carboxamide]", "values": [{"measurement": "% long compare to B", "value": 2, "unit": "%"}]}
